Assay results from patent US9802929B2, “Benzo five-membered nitrogen heterocyclic piperidine or piperazine derivatives and preparation methods and pharmaceutical compositions thereof” (Shenyang Haiwang Biotechnology Co., Ltd., priority 2012, dated 2017).

Key:
[1] = tested on: In-Vitro Vascular Smooth Muscle of Rabbits; assay: Relaxant effect on in vitro rabbit vascular smooth muscle contraction induced by hyperkalemia solution; details: for EC50: Oryctolagus cuniculus, relaxation of rabbit aortic rings contracted by hyperkalemia solution (K+ 60 mmol/L); for relaxant effect against hyperkalemia solution contraction (in words): rabbit vascular smooth muscle
[2] = tested on: In Vitro Vascular Smooth Muscle of Rabbits; assay: Relaxant effect on in vitro rabbit vascular smooth muscle contraction induced by adrenaline (AD); details: for EC50: Oryctolagus cuniculus, relaxation of rabbit aortic rings contracted by AD (10^−5 mol/L); for relaxant effect against AD contraction (in words): rabbit vascular smooth muscle, AD 10^−5 mol/L
Source text: Krebs-Henseleit (K—H) physiological solution: NaCl 6.92 (concentration units), KCl 0.35, MgSO4 0.29, KH2PO4 0.16, CaCl2 0.28, NaHCO3 2.1, glucose 2.0 (g/L), pH 7.2.
Preparation of compound II-1 to II-87 solutions: Weigh a certain quality compound samples and dilute to concentrations (10^−10˜10^−3 mol/L) with distilled water, standby.
Cut the chest open quickly after stunning, strip out the descending aorta, then after removing the surrounding connective tissue and adipose tissue (if performed serotonin receptor antagonist experiments, endothelial cells should be removed using a smooth stainless steel bars), cut the vessels into 3-5 mm vascular ring, then pass the steel hook through the blood vessel ring, with one end is fixed to the vent hook and the other end connected to the tension transducer, then place the specimens into bath tube containing 20 mL of nutrient solution, and record tension change by tension transducer. Maintain tube temperature at 37±0.5° C., and pass bubbles (95% O2+5% CO2) into the solution as a speed of 1-2 bubbles/minute. Place an initial load of 1.5 g on the rings, and change nutrient every 20 minutes, then balance for 2 hours and start test after baseline readings are stabilized.
After tension readings are stabilized, record a certain length of tension curve, and add spasmogens agent AD (10^−5 mol/L) to induce contraction; if a maximum contract is achieved, wash the specimens thoroughly, and change K—H solution every 20 minutes, and then balance for 60 minutes; after baseline readings are stabilized, induce contract with spasmogens agent again. When the maximum contract in the later induction is consistent with the former induction, add compound II-1 to II-34 solutions (1×10^−10 to 1×10^−3 mol/L), II-35 to II-87 solutions (1×10^−8-1×10^−3 mol/L), and record the curves. Draw a dose-response curve using maximum relaxation response as 100%, relaxation percentage as ordinate and negative logarithms of the each concentration as abscissa.

Row | Structure (SMILES) | EC50 [1] [µM] | further results
1 | Clc1cccc(C2CCN(CCCCn3cnc4ccccc43)CC2)c1 [Compound II-1, N-(4-(1H-benzimidazol-1-yl)butyl)-4-(3-chlorophenyl)piperidine] | 20.4 | 
2 | FC(F)(F)c1cccc(C2CCN(CCCCn3cnc4ccccc43)CC2)c1 [Compound II-3, N-(4-(1H-benzimidazol-1-yl)butyl)-4-(3-trifluoromethylphenyl)piperidine] | 0.977 | 
3 | COc1ccccc1C1CCN(CCCCn2cnc3ccccc32)CC1 [Compound II-6, N-(4-(1H-benzimidazol-1-yl)butyl)-4-(2-methoxyphenyl)piperidine] | 41.7 | 
4 | Clc1cccc(N2CCN(CCCCn3cnc4ccccc43)CC2)c1Cl [Compound II-37, 1-(4-(4-(2,3-dichlorophenyl)piperazin-1-yl)butyl)-1H-benzimidazole] | 3.24 | EC50 [2]: 0.977 µM; relaxant effect against AD contraction (in words) [2]: most significant relaxation effects; relaxant effect against hyperkalemia solution contraction (in words) [1]: significant relaxant effect
5 | Clc1cccc(N2CCN(CCCCn3nnc4ccccc43)CC2)c1 [Compound II-63, 1-(4-(4-(3-chlorophenyl)piperazin-1-yl)butyl)-1H-benzotriazole] | 2.29 | EC50 [2]: 0.977 µM; relaxant effect against AD contraction (in words) [2]: most significant relaxation effects; relaxant effect against hyperkalemia solution contraction (in words) [1]: significant relaxant effect
6 | FC(F)(F)c1cccc(C2CCN(CCCCn3nnc4ccccc43)CC2)c1 [II-4, N-(4-(1H-benzotriazole-1-yl)butyl)-4-(3-trifluoromethylphenyl)piperidine] | 0.759 | 
7 | Fc1cccc(C2CCN(CCCCn3cnc4ccccc43)CC2)c1 [II-5, N-(4-(1H-benzimidazol-1-yl)butyl)-4-(3-fluorophenyl)piperidine] | 36.3 | 
8 | Fc1ccc2nnn(CCCCN3CCC(c4cccc(C(F)(F)F)c4)CC3)c2c1 [II-7, N-(4-(6-fluoro-1H-benzotriazole-1-yl)butyl)-4-(3-trifluoromethylphenyl)piperidine] | 9.33 | 
9 | COc1ccc2nnn(CCCCN3CCC(c4cccc(C(F)(F)F)c4)CC3)c2c1 [II-8, N-(4-(6-methoxy-1H-benzotriazole-1-yl)butyl)-4-(3-trifluoromethylphenyl)piperidine] | 27.5 | 
10 | N#Cc1ccc2nnn(CCCCN3CCC(c4cccc(C(F)(F)F)c4)CC3)c2c1 [II-9, N-(4-(6-cyano-1H-benzotriazole-1-yl)butyl)-4-(3-trifluoromethylphenyl)piperidine] | 58.9 | 
11 | FC(F)(F)c1cccc(C2CCN(CCCOn3nnc4ccccc43)CC2)c1 [II-10, N-(4-(1H-benzotriazole-1-yl)propoxy)-4-(3-trifluoromethylphenyl)piperidine] | 6.03 | 
12 | FC(F)(F)c1cccc(C2CCN(CCCOn3cnc4ccccc43)CC2)c1 [II-11] | 6.76 | 
13 | Cc1ccc2c(C3CCN(CCCn4nnc5ccccc54)CC3)noc2c1 [II-12, N-(3-(1H-benzotriazole-1-yl)propyl)-4-(3-(6-methyl-benzisoxazole))piperidine] | 8.13 | 
14 | COc1ccc2c(C3CCN(CCCn4nnc5ccccc54)CC3)noc2c1 [II-13, N-(3-(1H-benzotriazole-1-yl)propyl)-4-(3-(6-methoxy-benzene and isoxazole))piperidine] | 7.59 | 

Continued, in another order:

Row | EC50 [1] [µM] | Structure (SMILES) | further results
15 | 1.91 | Fc1ccc2c(C3CCN(CCCn4nnc5ccc(F)cc54)CC3)noc2c1 [II-14, N-(3-(6-fluoro-1H-benzotriazole-1-yl)propyl)-4-(3-(6-fluorobenzoisoxazole))piperidine] | 
16 | 7.59 | Fc1ccc2c(C3CCN(CCCn4nnc5ccc(Cl)cc54)CC3)noc2c1 [II-15, N-(3-(6-chloro-1H-benzotriazole-1-yl)propyl)-4-(3-(6-fluorobenzoisoxazole))piperidine] | 
17 | 5.25 | Cc1ccc2nnn(CCCN3CCC(c4noc5cc(F)ccc45)CC3)c2c1 [II-16, N-(3-(6-methyl-1H-benzotriazole-1-yl)propyl)-4-(3-(6-fluorobenzoisoxazole))piperidine] | 
18 | 4.79 | O=Cc1ccc2nnn(CCCN3CCC(c4noc5cc(F)ccc45)CC3)c2c1 [II-18, N-(3-(6-formyl-1H-benzotriazole-1-yl)propyl)-4-(3-(6-fluorobenzoisoxazole))piperidine] | 
19 | 7.76 | COc1ccc2nnn(CCCN3CCC(c4noc5ccccc45)CC3)c2c1 [II-19, N-(3-(6-methoxybenzotriazolyl)propyl)-4-(3-benzoisoxazole)piperidine] | 
20 | 58.9 | COc1ccc2c(C3CCN(CCCCn4nnc5ccc(C#N)cc54)CC3)noc2c1 [II-23, N-(4-(6-cyano-benzotriazole-yl)butyl)-4-(3-(6-methoxy-benzene and isoxazole)) piperidine] | 
21 | 29.5 | c1coc(C2CCN(CCCCn3cnc4ccccc43)CC2)c1 [II-29, N-(4-(1H-benzimidazol-1-yl)butyl)-4-(2-furyl)piperidine] | 
22 | 55 | c1ccc2c(c1)ncn2CCCCN1CCC(c2ccncc2)CC1 [II-30, N-(4-(1H-benzimidazol-1-yl)butyl)-4-(4-pyridyl)piperidine] | 
23 | 47.9 | c1cnc(C2CCN(CCCCn3cnc4ccccc43)CC2)nc1 [II-31, N-(4-(1H-benzimidazol-1-yl)butyl)-4-(2-pyrimidinyl)piperidine] | 
24 | 72.4 | c1ccc2c(c1)nnn2CCCCN1CCC(C2CCCCC2)CC1 [II-32, N-(4-(1H-benzotriazole-1-yl)butyl)-4-cyclohexyl piperidine] | 
25 | 91.2 | c1ccc2c(C3CCN(CCCCn4nnc5ccccc54)CC3)cccc2c1 [II-33, N-(4-(1H-benzotriazole-1-yl)butyl)-4-(1-naphthyl)piperidine] | 
26 | 74.1 | c1ccc2nc(C3CCN(CCCCn4nnc5ccccc54)CC3)cnc2c1 [II-34, N-(4-(1H-benzotriazole-1-yl)butyl)-4-(2-quinoxalinyl)piperidine] | 
27 | 117 | c1ccc2c(c1)ncn2CCCCN1CCN(c2n[nH]c3ccccc23)CC1 [II-54, 1-(4-(4-(3-benzopyrazolyl)piperazin-1-yl)butyl)-1H-benzimidazole] | EC50 [2]: 58.9 µM
28 | 4.68 | Clc1cccc(N2CCN(CCCn3nnc4ccccc43)CC2)c1Cl [II-72, 1-(3-(4-(2,3-dichlorophenyl)piperazin-1-yl)propyl)-1H-benzotriazole] | EC50 [2]: 1.91 µM
29 | 6.03 | Cc1cccc(N2CCN(CCCn3nnc4ccccc43)CC2)c1 [II-73, 1-(3-(4-(3-methylphenyl)piperazin-1-yl)propyl)-1H-benzotriazole] | EC50 [2]: 3.39 µM
30 | 49 | N#Cc1ccc2nnn(CCCCN3CCN(c4cccc(C(F)(F)F)c4)CC3)c2c1 [II-84, 6-cyano-1-(4-(4-(3-trifluoromethylphenyl)piperazin-1-yl)butyl)-1H-benzotriazole] | 
31 | 77.6 | COC(=O)c1ccc2nnn(CCCCN3CCN(c4cccc(C(F)(F)F)c4)CC3)c2c1 [II-85, 6-methoxycarbonyl-1-(4-(4-(3-trifluoromethylphenyl)piperazin-1-yl)butyl)-1H-benzotriazole] | 
32 | 26.3 | Fc1ccc2c(N3CCN(CCCOn4nnc5ccccc54)CC3)noc2c1 [II-86] | EC50 [2]: 13.2 µM
